The conditions of data set [1]: irinotecan 125 mg/m^2 weekly×4, Q6W; cited from earlier work.
For data set [2], the system named is patients with diverse metastatic cancers. The data set can be described thus: Phase I / phase II extension clinical trial of IMMU-132: best response, time to progression, case reports. Type of data set: in vivo, human.
Experimental: In a 3+3 trial design, IMMU-132 was given on days 1 and 8 in repeated 21-day cycles, starting at 8 mg/kg/dose, then 12 and 18 mg/kg before dose-limiting neutropenia. To optimize cumulative treatment with minimal delays, phase II is focusing on 8 and 10 mg/kg (n=30 and 14, respectively). […] In the Phase I and the expansion phases, there are now 48 pts (excluding PDC) who are assessable by RECIST/CT for best response.
A total of 69 patients (including 25 patients in Phase I) with diverse metastatic cancers having a median of 3 prior therapies were reported. Eight patients had clinical progression and withdrew before CT assessment. Thirteen CT-assessable pancreatic cancer patients were separately reported.
A total of 48 patients with diverse cancers had at least 1 CT-assessment from which Best Response (not shown) and Time to Progression (TTP; not shown) were determined.
Data set [3] can be described thus: Phase I/II clinical trial of IMMU-132: related adverse events and dose reductions. Type of data set: in vivo, human.
The nature of data set [4]: Clinical pharmacokinetics of IMMU-132 in serum (ELISA, HPLC of SN-38). The class given is in vivo, human. How it is done: Two ELISA methods were used to measure the clearance of the IgG (capture with anti-hRS7 idiotype antibody) and the intact conjugate (capture with anti-SN-38 IgG/probe with anti-hRS7 idiotype antibody). SN-38 was measured by HPLC.
In data set [5] the test system is Capan-1 human pancreatic tumor xenografts. The data set can be described thus: SN-38 delivery to tumor in nude mice bearing Capan-1 xenografts. The class given is in vivo. The source says:
The present Example reports results from a phase I clinical trial and ongoing phase II extension with IMMU-132 (sacituzumab govitecan), an antibody-drug conjugate (ADC) of the internalizing, humanized, hRS7 anti-Trop-2 antibody conjugated by a pH-sensitive linker to SN-38 (mean drug-antibody ratio=7.6). Trop-2 is a type I transmembrane, calcium-transducing, protein expressed at high density (˜1×10^5), frequency, and specificity by many human carcinomas, with limited normal tissue expression.

Data set [6] can be described thus: In vivo animal studies of SN-38 release from conjugate.
Data set [7] deals with stage IIIB NSCLC (squamous cell carcinoma). The data set can be described thus: Example 10: treatment of NSCLC patient after detection of Trop-2+ CTCs. The class given is in vivo, human. Particulars: person. How it is done:
A […]® system and Circulating Tumor Cell Kit are obtained Veridex LLC (Raritan, N.J.). A 7.5 ml blood sample is collected from a person with suspected NSCLC and stored in a CellSave tube (Veridex LLC). The anti-Trop-2 hRS7 antibody is substituted for the anti-EpCAM antibody provided with the […]® kit. The blood sample is mixed with magnetic nanoparticles conjugated to anti-Trop-2 antibody. Cells are stained with fluorescently labeled anti-CD45 and anti-CK antibodies and cell nuclei are fluorescently labeled with DAPI nuclear dye. A strong magnetic field is generated in the […]® system and used to separate cells bound to the magnetic nanoparticles, which are then analyzed by FISH to determine Trop-2 copy number, as described in Example 7 above.
Initial treatment of caboplatin/etoposide (3 mo) in concert with 7000 cGy XRT results in a response lasting 10 mo. The patient is then started on Tarceva maintenance therapy, which they continue until they were considered for IMMU-132 (hRS7-CL2A-SN-38) trial, in addition to undergoing a lumbar laminectomy. They receive the first dose of IMMU-132 after 5 months of Tarceva, presenting at the time with a 5.6-cm lesion in the right lung with abundant pleural effusion.

The conditions of data set [8]: human, in vivo.
Data set [9] deals with DDD of the RII form of PKA (Homo sapiens, UniProt P13861). Particulars: Alto et al. 2003; read-out: binding constant for DDD; cited from earlier work.
DDD of the RII form of PKA, sequence (P13861 2-45 limits assumed): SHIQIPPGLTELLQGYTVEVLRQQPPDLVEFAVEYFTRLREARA
Data set [10] deals with RII isoform of PKA (Homo sapiens, UniProt P13861). Particulars: Gold et al. 2006; cited from earlier work.
RII isoform of PKA, sequence (P13861 whole entry, canonical isoform): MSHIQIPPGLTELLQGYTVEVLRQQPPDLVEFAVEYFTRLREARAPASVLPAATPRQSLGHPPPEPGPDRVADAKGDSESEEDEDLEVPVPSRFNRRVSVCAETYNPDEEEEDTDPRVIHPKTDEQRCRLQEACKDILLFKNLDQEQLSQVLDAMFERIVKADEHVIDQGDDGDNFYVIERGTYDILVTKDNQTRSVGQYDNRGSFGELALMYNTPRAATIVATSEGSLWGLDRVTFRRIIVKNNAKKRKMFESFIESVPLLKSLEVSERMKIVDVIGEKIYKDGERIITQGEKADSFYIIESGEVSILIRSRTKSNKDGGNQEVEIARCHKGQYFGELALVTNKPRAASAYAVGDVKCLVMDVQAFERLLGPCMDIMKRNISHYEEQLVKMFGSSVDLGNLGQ
[11] abbreviates: 48 pts (excluding PDC) assessable by RECIST/CT.
The mark [12] stands for this setting: all patients treated, 48 assessable.
Setting [13] is: esophageal cancer, 4 assessable patients.
Setting [14] is: starting dose 8 or 10 mg/kg, N = 123 patients.

These results are taken from patent publication US9797907B2, “Isolation, detection, diagnosis and/or characterization of circulating Trop-2-positive cancer cells” (Immunomedics, Inc., priority 2015, dated 2017).

pKd: −log10 of the molar value. “And” between values parts separate entries of the source, which are not always exact repeats. Identical values can stand only once. A value given as a limit tells only on which side of the number the result lay.

Turning to `CCc1c2c(nc3ccc(OC(=O)N4CCC(N5CCCCC5)CC4)cc13)-c1cc3c(c(=O)n1C2)COC(=O)[C@]3(O)CC` [irinotecan], in [1], the “incidence of grade ¾ diarrhea” value is on record as 38%, the incidence of neutropenia is given as 31% and the “incidence of neutropenic fever/infection” value is recorded as 8%.

On to `CC[C@@]1(O)C(=O)OCc2c1cc1n(c2=O)Cc2cc3c(CN(C)C)c(O)ccc3nc2-1` [topotecan, reference compound], for which, in [2] (person with SCLC, therapy ended after 2 months), the “response to prior therapy” value was “no response”.

IMMU-132: the “PDC patients with SD” value in data set [2] (13 CT-assessable PDC pts) is 62%. Besides, the “median time to progression (TTP) in PDC patients” value in data set [2] (13 CT-assessable pancreatic cancer patients, 8 wks in last prior therapy) is 12.7 wks and 11.9 wks. Also, the “patients with disease response (total)” value in [2] (setting [11]) is on record as 79%. Also, the “patients with partial response (PR)” value in [2] (setting [11]) turned out to be 15%. For the same molecule, the “TTP for the remaining 48 pts” value in [2] (48 pts excluding PDC) is given as at least 12.6 wks. In addition, the “total response [PR+SD]” value is recorded as 67% in data set [2] (CRC, 12/18); 80% in [2] (NSCLC, ⅘); 50% in data set [2] (SCLC, 2/4); 75% in data set [2] (TNBC, 6/8); 71% in [2] (all patients treated, 34/48); 75% in data set [2] (esophageal cancer, ¾). Also, the PD in [2] (CRC, 18 assessable patients) was 6 patients; in data set [2] (NSCLC, 5 assessable patients), 1 patients; in [2] (SCLC, 4 assessable patients), 2 patients; in data set [2] (setting [12]), 14 patients; in data set [2] (setting [13]), 1 patients. Also, the PR in data set [2] (CRC, 18 assessable patients) is reported as 1 patients; in [2] (NSCLC, 5 assessable patients) it was 1 patients; in data set [2] (SCLC, 4 assessable patients) it was 2 patients; in [2] (setting [12]), 7 patients; in data set [2] (setting [13]), 1 patients. The “clinical benefit ratio (CR+PR+(SD≧4 mo)])” value is on record as 44% in data set [2] (EAC, 16 assessable patients); 59% in [2] (NSCLC, 19 assessable patients); 55% in data set [2] (SCLC, 20 assessable patients); 63% in data set [2] (TNBC, 46 assessable patients). Moreover, the objective response in data set [2] (EAC, 16 assessable patients (2 patients)) is 13%; in data set [2] (NSCLC, 19 assessable patients (6 patients)), 32%; in data set [2] (SCLC, 20 assessable patients (6 patients)), 30%; in [2] (TNBC, 46 assessable patients (12 patients)), 26%. Further, the disease control turned out to be 56% in data set [2] (EAC, 16 assessable patients (9 patients)); 74% in [2] (NSCLC, 19 assessable patients (14 patients)); 55% in [2] (SCLC, 20 assessable patients (11 patients)); 74% in data set [2] (TNBC, 46 assessable patients (34 patients)). Also, the “clinical benefit ratio (CR+PR+(SD≧6 mo)])” value was 37% in data set [2] (SCLC, 20 assessable patients) and 46% in [2] (TNBC, 46 assessable patients). For the same molecule, the “PD (progressive disease)” value in data set [2] (TNBC, 8 assessable patients) came to 2 patients. Also, the “PR (partial response)” value in data set [2] (TNBC, 8 assessable patients) is on record as 2 patients. The “maximum reduction in target lesions” value in [2] (person with CRC, after 10 months of treatment) is listed as 65%. Besides, the CEA after treatment in data set [2] (person with CRC, decrease from 781 ng/mL) was found to be 26.5 ng/mL. In addition, the “reduction in target lesions at first CT assessment” value in data set [2] (person with CRC, starting dose 8 mg/kg) is given as 37%. In addition, the “reduction in target lesions” value in [2] (person with SCLC, 12 mg/kg reduced to 6.8 mg/kg, after two months) is 38%. Besides, the “primary target lesion size at first CT” value in [2] (person, stage IIIB NSCLC, after 6th dose, 5.6 cm lesion at start) was found to be 3.2 cm; in data set [7] (stage IIIB NSCLC, after 6th dose, 5.6-cm lesion at start), 3.2 cm. In addition, the alopecia in data set [3] (human, in vivo) is 40%. In [3] (human, in vivo), this molecule had a diarrhea of 47%. For the same molecule, the “diarrhea ≧G3” value in data set [3] (human, in vivo) is given as 9%. Besides, in [3] (human, in vivo), the fatigue came out at 55%. The “fatigue ≧G3” value in data set [3] (human, in vivo) is 9%. In [3] (human, in vivo), this molecule returned a nausea of 53%. Moreover, in data set [3] (human, in vivo), the “nausea ≧G3” value turned out to be 0%. Moreover, the “neutropenia G4” value in data set [3] (human, in vivo) was 4%. Further, the “neutropenia ≧G3” value in [3] (human, in vivo) is 28%. The molecule further had a vomiting in [3] (human, in vivo) of 32%. In [3] (human, in vivo), the “vomiting ≧G3” value is recorded as 2%. Further, the “patients provided with a dose reduction” value is reported as 16% in [3] (human, in vivo, 8 mg/kg); 15% in data set [3] (human, in vivo, 10 mg/kg); 67% in [3] (human, in vivo, 12 mg/kg); 100% in data set [3] (human, in vivo, 18 mg/kg). In addition, the “Urinary Tract Infection, Grade 3” value in [3] (setting [14]) is 1 (1%) patients (%). Moreover, the “Urinary Tract Infection, Grade 4” value in data set [3] (setting [14]) is listed as 0 patients (%). Moreover, in data set [4] (ELISA), the “clearance of total IMMU-132 fraction (intact conjugate) vs IgG” value was “cleared more quickly than the IgG”. In addition, the “SN-38 in the serum bound to the IgG” value in [4] (HPLC, unbound and total SN-38, non-glucoronidated form) is on record as over 95%. Further, the “serum SN-38 concentration relative to SN-38 reported in patients given irinotecan” value in [4] (human, in vivo) is on record as at most 100 fold. Moreover, the “time for conjugate to clear from the serum” value in data set [4] (patients) is on record as at most 3 days. In addition, the “concentrations of SN-38G” value in data set [4] (serum, HPLC) is “Low concentrations”. For the same molecule, the “SN-38 delivered to tumor relative to maximally tolerated irinotecan therapy” value in [5] is at most 136 fold. Besides, in data set [6], the SN-38 released daily came to 50%. Further, the “Trop-2+ CTC number following treatment” value in [7] (NSCLC, periodic assays) is given as “substantial reduction”. Also, the “anti-hRS7 or anti-SN-38 antibodies” value in [8] is on record as “No anti-hRS7 or anti-SN-38 antibodies were detected”. In data set [8], the “antibody response to IMMU-132” value is “no evidence of an antibody response”.

In the case of QIEYLAKQIVDNAIQQA [AKAP-IS], the pKd in data set [9] was 9.40.

For the molecule QIEYVAKQIVDYAIHQA [SuperAKAP-IS], the “selectivity for the RII isoform of PKA compared with the RI isoform” value in data set [10] was “five order of magnitude higher selectivity”.
